Experiment: Pharmacokinetic test: plasma DXR concentration after tail vein administration of liposomes
Type: in vivo, Male BALB/cAjcl mice
Conditions: free (leaked) DXR
Experimental: Male BALB/cAjcl mice (6-week old) were used in experiments. A mouse group consisting of four mice was used for each of the liposomes, and one untreated mouse was used as a blank in the experiment. The liposomes were administered into the tail vein at the dose of 2 mg/kg as DXR. After 16 hours from the administration, a Nembutal injection solution (Dainippon Pharmaceutical Co., Ltd.) was intraperitoneally administered to the mice and thoracotomy was performed under anesthetization to collect blood. Blood plasma was separated and used for analysis of DXR.
100 μL of the plasma was added with 1 mL of 0.3 M hydrochloric acid/50% ethanol (hydrochloric ethanol) and heated at 60° C. for 10 minutes to extract DXR. The extract was cooled to 4° C. and centrifuged at 15,000 rpm for 10 minutes to collect a supernatant. The sample was diluted 4 times with hydrochloric ethanol and its fluorescence was measured at a fluorescence wavelength of 590 nm with an excitation wavelength of 490 nm. A calibration curve was prepared by using DXR diluted with hydrochloric ethanol to known concentrations and used in quantification of DXR in plasma. The recovery of DXR from the mouse plasma was 95 to 98% in a range of […] of DXR (Reference: Cancer Res., 47, 4471, 1987).
DXR in blood plasma was quantified in the same manner as in Example 2.

- disappearance from blood of DXR leaked from the liposomes: rapidly disappear from blood
SMILES: COc1cccc2c1C(=O)c1c(O)c3c(c(O)c1C2=O)C[C@@](O)(C(=O)CO)C[C@@H]3O[C@H]1C[C@H](N)[C@H](O)[C@H](C)O1 [DXR, doxorubicin]

Reference: patent US20080014255A1, “Liposome bonded with antibody and polyalkylene glycol” (Mitsubishi Chemical Corporation, priority 1999, published 2008)
